Consider two compounds from patent US20230399360A1, “TERLIPRESSIN-OCTADECANEDIOIC ACID CONJUGATE FOR VASOCONSTRICTIVE THERAPY” (Northwestern University, priority 2019, published 2023).

The structures appear in SMILES notation. Bridge positions count the residues as written; N and C are the ends. Peptide text beside a SMILES is read from it. * marks the point of attachment. C18 diacid = O=C(O)CCCCCCCCCCCCCCCCC(=O)*

Series [1] is described as follows: in vivo. Conditions: mouse.
Protocol: (§1) Blood samples were drawn from the animals (approximately 100 μl) at different time points (1 hr, 3 hr, 6 hr, 24 hr) following the injection. The plasma was separated from the whole blood by centrifugation at 7,000 RPM for 10 minutes and the supernatant was transferred to a new tube. To separate the peptides or peptide conjugates from the plasma proteins, the proteins were denatured using a 7M guanidinium hydrochloride solution mixed 1:1 with the plasma and incubated at room temperature for 15 minutes. Subsequently, to the solution was diluted 10-fold with cold ethanol and the samples were incubated at −20° C. After 1 hour incubation the samples were centrifuged at 10,000 RPM for 10 minutes to precipitate the proteins, and the supernatant was transferred to a new tube. Samples were kept at −80° C. until analyzed.
(§2) 5-20 μl of the ethanol solution were injected to a QTRAP 6500+LC-MS/MS system (SCIEX) for detecting the drug concentration. Mass spectra were obtained and the areas under the curves were evaluated against a calibration curve made formerly.
(§3) Blood pressure measurements were taken for the first 20 minutes following drug injection, and subsequently blood samples were drawn at 1, 3, 6 and 24 hours.
The conditions of series [2]: mouse, in vivo.
Protocol: as §1, §2, §3
Series [3] concerns the target T1, V1 receptor (Homo sapiens, UniProt P37288).
T1 construct: Primary human aortic smooth muscle cells (ATCC, PCS-100-012 cell line) were cultured in vascular cell basal medium; host or cells: primary human aortic smooth muscle cells
Kind of series: Calcium influx assay (Fluo-4) in primary human aortic smooth muscle cells. The class given is cell-based. Conditions: 10^-8 to 10^-4 M, fluorescence over 5 min. On the procedure:
Primary human aortic smooth muscle cells (ATCC, PCS-100-012 cell line) were cultured in vascular cell basal medium supplemented with rhFGF-basic 5 ng/mL, rh insulin 5 μg/mL, ascorbic acid 50 μg/mL, L-glutamine 10 mM, rh EGF 5 ng/mL, fetal bovine serum 5%.
Calcium influx assays were performed using Fluo-4 direct calcium assay kit (ThermoFisher) on cells between passage numbers 3 to 6. To this end, cells were passaged and plated in a 96-well black tissue culture plate in a concentration of 10,000 cells per well followed by incubation in 37° C. and 5% CO2 for 48 hours. Cells were loaded with the dye and incubated for 1 hr at 37° C. and 5% CO2. Then, terlipressin peptide or terlipressin-ODDA was added to the wells in concentrations ranging from 10^−8 to 10^−4 M, and fluorescence was measured immediately on a Perkin Elmer EnSpire 2300 plate reader. Signal was measured at 530 nm following excitation at 488 nm at 999 time points over a 5 min period.

Series [4] in a line: Non-invasive tail-cuff systolic blood pressure measurement in mice. It counts as in vivo, C57BL/6 mice. The conditions noted are these: for increase in systolic blood pressure: C57BL mice, intraperitoneal injection, 0.1 to 10 μg/gr body weight, 20 minutes of measurement, compared with PBS vehicle.
The conditions of series [5]: human, in vivo; cited from earlier work.
The mark [6] stands for this setting: listed as terlipressin conjugate.
[7] abbreviates: mice, systolic blood pressure vs baseline (FIG. 8).

T1 sequence (P37288 whole entry): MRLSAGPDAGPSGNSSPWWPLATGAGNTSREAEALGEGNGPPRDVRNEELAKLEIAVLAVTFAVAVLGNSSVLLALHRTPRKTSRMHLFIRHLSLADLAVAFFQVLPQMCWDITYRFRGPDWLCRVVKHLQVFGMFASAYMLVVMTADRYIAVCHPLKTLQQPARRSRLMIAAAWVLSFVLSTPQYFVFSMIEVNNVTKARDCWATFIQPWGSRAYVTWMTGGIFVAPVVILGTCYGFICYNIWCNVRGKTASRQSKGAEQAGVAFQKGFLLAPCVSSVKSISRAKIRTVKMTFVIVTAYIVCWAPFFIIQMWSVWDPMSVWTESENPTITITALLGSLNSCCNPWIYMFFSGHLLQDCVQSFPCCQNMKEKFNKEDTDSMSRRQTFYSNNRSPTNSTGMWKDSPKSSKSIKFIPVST

`NCCCCC(NC(=O)C1CCCN1C(=O)C1CSSCC(NC(=O)CNC(=O)CNC(=O)CNC(=O)CCCCCCCCCCCCCCCCC(=O)O)C(=O)NC(Cc2ccc(O)cc2)C(=O)NC(Cc2ccccc2)C(=O)NC(CCC(N)=O)C(=O)NC(CC(N)=O)C(=O)N1)C(=O)NCC(N)=O` (stereo not shown) [C18-terlipressin, octadecanedioic acid-terlipressin] ({C18 diacid}-GGGCYFQNCPKG-NH2; disulfide 4-9; configuration not given here): the half-life (in general, how long it takes for the measured level to halve) in series [1] was about 60 min. Besides, the “detection in plasma by LC-MS-MS” value in series [2] is “very sharp and clear peaks”. For the same compound, in series [2], the half-lifetime in plasma result is “about 1 hour”. For the same compound, the “activation of smooth muscle cells indicated by influx of intracellular calcium” value in series [3] (listed as conjugate) was “can stimulate vasocontraction in cultured smooth muscle cells”; in series [3] (setting [6]) it was “can stimulate response in cultured smooth muscle cells”; in series [3] (listed as terlipressin conjugates), “can bind to and activate smooth muscle cells”. In addition, the “increase in systolic blood pressure” value in series [4] was “clear increase in pressure”; in series [4] (listed as C18 ODDA-terlipressin conjugates), “increase the systolic blood pressure”; in series [4] (listed as ODDA-terlipressin conjugates), “increase the systolic blood pressure”; in series [4] (setting [6]) it was “Rise in blood pressure was observed”. The “course of systolic blood pressure over time after injection” value in series [4] (setting [7]) is recorded as “more stable pressure over time”.
Regarding `NCCCC[C@H](NC(=O)[C@@H]1CCCN1C(=O)[C@@H]1CSSC[C@H](NC(=O)CNC(=O)CNC(=O)CN)C(=O)N[C@@H](Cc2ccc(O)cc2)C(=O)N[C@@H](Cc2ccccc2)C(=O)N[C@@H](CCC(N)=O)C(=O)N[C@@H](CC(N)=O)C(=O)N1)C(=O)NCC(N)=O` [terlipressin, Terlipressin] (H-GGGCYFQNCPKG-NH2; disulfide 4-9), the “detection in plasma by LC-MS-MS” value in series [2] is reported as “no terlipressin was detected at all”. The “half life following IV administration” value in series [5] is given as “less than 6 minutes”. In addition, in series [4], the “increase in systolic blood pressure” value was “clear increase in pressure”. In series [4] (setting [7]), the “course of systolic blood pressure over time after injection” value is given as “continuous drop in pressure” and the “time of peak in measured blood pressure following the injection” value was found to be 5 min.
